Assay results: US20060229302A1, “Tricyclic indole derivatives and their use in the treatment of alzheimer's disease” (priority 2003, published 2006)
Structures can show the parent of a compound that is named as a salt.

Target: Asp-2 (Homo sapiens, UniProt P56817)
Assay: Asp-2 inhibitory assay
Assay type: biochemical
Settings: FAM-[[…]]-TAMRA substrate, pH 4.5, 1 h room temperature; read-out: inhibition in the Asp-2 inhibitory assay
Method: (I) Asp-2 Inhibitory Assay
For each compound being assayed, in a 384 well plate, is added:
This is prepared by diluting 2 ml of a 2 mM DMSO solution of the substrate into 400 ml of buffer (100 mM Sodium acetate pH=4.5, 1 l Milli-Q water, 0.06% Triton X-100 (0.5 ml/l), pH adjusted to 4.5 using glacial acetic acid).
c) 10 μl enzyme solution. This is prepared by diluting 16 ml of a 500 nM enzyme solution into 384 ml of buffer (prepared as above).
Blank wells (enzyme solution replaced by buffer) are included as controls on each plate.

Chain of Asp-2 (P56817 46-501): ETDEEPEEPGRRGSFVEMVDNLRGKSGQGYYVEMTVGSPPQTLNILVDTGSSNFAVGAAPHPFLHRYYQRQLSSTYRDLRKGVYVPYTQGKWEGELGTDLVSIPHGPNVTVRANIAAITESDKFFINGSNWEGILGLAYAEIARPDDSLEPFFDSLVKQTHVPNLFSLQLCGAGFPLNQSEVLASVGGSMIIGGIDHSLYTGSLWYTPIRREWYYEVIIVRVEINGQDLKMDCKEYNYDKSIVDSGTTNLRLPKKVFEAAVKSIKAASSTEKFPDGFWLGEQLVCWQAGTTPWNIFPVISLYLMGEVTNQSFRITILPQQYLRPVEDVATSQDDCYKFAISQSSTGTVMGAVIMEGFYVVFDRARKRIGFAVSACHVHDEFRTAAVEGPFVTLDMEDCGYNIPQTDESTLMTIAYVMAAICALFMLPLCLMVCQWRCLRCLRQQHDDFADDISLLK

Structure (SMILES)	IC50 [µM]
CCc1cn2c3c(cc(C(=O)N[C@@H](Cc4ccccc4)[C@H](O)CNCc4cccc(OC(F)(F)F)c4)cc13)N(C)S(=O)(=O)CC2 [Example E67, 7-Ethyl-N-{(1S,2R)-2-hydroxy-1-(phenylmethyl)-3-[({3-[(trifluoromethyl)oxy]phenyl}methyl)amino]propyl}-1-methyl 3,4-dihydro-1H-[1,2,5]thiadiazepino[3,4,5-hi]indole-9-carboxamide 2,2-dioxide formate salt]	< 1
CCc1cn2c3c(cc(C(=O)N[C@@H](Cc4ccccc4)[C@H](O)CN[C@H]4CCc5ccccc54)cc13)N(C)S(=O)(=O)CC2 [Example E72, N-[(1S,2R)-3-[(1S)-2,3-Dihydro-1H-inden-1-ylamino]-2-hydroxy-1-(phenylmethyl)propyl]-7-ethyl-1-methyl-3,4-dihydro-1H-[1,2,5]thiadiazepino[3,4,5-hi]indole-9-carboxamide 2,2-dioxide formate salt]	< 1
CCc1cn2c3c(cc(C(=O)N[C@@H](Cc4ccccc4)[C@H](O)CNCc4cnn(CC(F)(F)F)c4)cc13)N(C)S(=O)(=O)CC2 [Example E74, 7-Ethyl-N-[(1S,2R)-2-hydroxy-1-(phenylmethyl)-3-({[1-(2,2,2-trifluoroethyl)-1H-pyrazol-4-yl]methyl}amino)propyl]-1-methyl-3,4-dihydro-1H-[1,2,5]thiadiazepino[3,4,5-hi]indole-9-carboxamide 2,2-dioxide formate salt]	< 1
CCc1cn2c3c(cc(C(=O)N[C@@H](Cc4ccccc4)[C@H](O)CNCc4cccc(C(F)(F)F)c4)cc13)N(C)S(=O)(=O)C2C (stereo partly drawn) [Example E78, 6-Ethyl-N-[(1S,2R)-2-hydroxy-1-(phenylmethyl)-3-({[3-(trifluoromethyl)phenyl]methyl}amino)propyl]-1,3dimethyl-1H-[1,2,5]thiadiazino[3,4,5-hi]indole-8-carboxamide 2,2-dioxide formate salt]	< 1
CCc1cn2c3c(cc(C(=O)N[C@@H](Cc4ccccc4)[C@H](O)CNC(C)(C)c4cccc(C(F)(F)F)c4)cc13)N(C)S(=O)(=O)C2 [Example E79, 6-Ethyl-N-[(1S,2R)-2-hydroxy-3-({1-methyl-1-[3-(trifluoromethyl)phenyl]ethyl}amino)-1-(phenylmethyl)propyl]-1-methyl-1H-[1,2,5]thiadiazino[3,4,5-hi]indole-8-carboxamide 2,2-dioxide formate salt]	< 1
CCc1cn2c3c(cc(C(=O)N[C@@H](Cc4ccccc4)[C@H](O)CNCc4cncc(C(=O)NC)c4)cc13)N(C)S(=O)(=O)CC2 [Example E97, 7-Ethyl-N-[(1S,2R)-2 hydroxy-3-[({5-[(methylamino)carbonyl]-3-pyridinyl}methyl)amino]-1-(phenylmethyl)propyl]-1-methyl-3,4-dihydro-1H-[1,2,5]thiadiazepino[3,4,5-hi]indole-9-carboxamide 2,2-dioxide formate salt]	< 1
CCc1cn2c3c(cc(C(=O)N[C@@H](Cc4ccccc4)[C@H](O)CN[C@@H](C)C(=O)NC4CCCCC4)cc13)N(C)S(=O)(=O)CC2 [Example E105, N-[(1S,2R)-3-{[(1S)-2-(Cyclohexylamino)-1-methyl-2-oxoethyl]amino}-2-hydroxy-1-(phenylmethyl)propyl]-7-ethyl-1-methyl-3,4-dihydro-1H-[1,2,5]thiadiazepino[3,4,5-hi]indole-9-carboxamide 2,2-dioxide]	< 1

Results, then the compound that gave them:

IC50 [µM]	Structure (SMILES)
< 1	CCc1cn2c3c(cc(C(=O)N[C@@H](Cc4ccccc4)[C@H](O)CNCc4cccc(C)c4)cc13)N(C)S(=O)(=O)CC2 [Example E70, 7-Ethyl-N-[(1S,2R)-2-hydroxy-3-{[(3-methylphenyl)methyl]amino}-1-(phenylmethyl)propyl]-1-methyl-3,4-dihydro-1H-[1,2,5]thiadiazepino[3,4,5-hi]indole-9-carboxamide 2,2-dioxide formate salt]
< 1	CCc1cn2c3c(cc(C(=O)N[C@@H](Cc4ccccc4)[C@H](O)CNCc4cccc(C(F)(F)F)c4)cc13)N(C)S(=O)(=O)C2 [Example E83, 6-Ethyl-N-[(1S,2R)-2-hydroxy-1-(phenylmethyl)-3-({[3-(trifluoromethyl)phenyl]methyl}amino)propyl]-1-methyl-1H-[1,2,5]thiadiazino[3,4,5-hi]indole-8-carboxamide 2,2-dioxide formate salt]
< 1	CCc1cc(CNC[C@@H](O)[C@H](Cc2ccccc2)NC(=O)c2cc3c4c(c2)c(CC)cn4CCS(=O)(=O)N3C)on1 [Example E104, 7-Ethyl-N-[(1S,2R)-3-{[(3-ethyl-5-isoxazolyl)methyl]amino}-2-hydroxy-1-(phenylmethyl)propyl]-1-methyl-3,4-dihydro-1H-[1,2,5]thiadiazepino[3,4,5-hi]indole-9-carboxamide 2,2-dioxide]
< 1	CCc1cn2c3c(cc(C(=O)N[C@@H](Cc4ccccc4)[C@H](O)CNC4CCC(F)(F)CC4)cc13)N(C)S(=O)(=O)CC2 [Example E106, N-[(1S,2R)-3-[(4,4-Difluorocyclohexyl)amino]-2-hydroxy-1-(phenylmethyl)propyl]-7-ethyl-1-methyl-3,4-dihydro-1H-[1,2,5]thiadiazepino[3,4,5-hi]indole-9-carboxamide 2,2-dioxide formate salt]
